From US12157729B2, “Solid state forms of Belumosudil and Belumosudil salts” (TEVA PHARMACEUTICALS INTERNATIONAL GMBH, priority 2020, dated 2024) come the findings set out here.

Series [1] can be described thus: Hygroscopicity of the crystalline form. Format: physicochemical. To be noted: crystalline solid form.
A short description of series [2]: Polymorphic stability at up to 100% relative humidity at room temperature. It is filed as physicochemical.

Belumosudil Mesylate [Form M1]: the hygroscopicity result in series [1] was “non-hygroscopic”. The “time over which the form is polymorphically stable” value in series [2] is reported as “at least 7 days”.
With Belumosudil Tosylate [Form T1], the hygroscopicity entry in series [1] is given as “non-hygroscopic”. For the same substance, the “time over which the form is polymorphically stable” value in series [2] is given as “at least 7 days”.
For Belumosudil Besylate [Form BS1], in that order: “non-hygroscopic” and “at least 7 days”.
